Experimental findings from patent US10544092B2 (priority 2015, dated 2020) are described below.

Holding throughout (assay type): in vivo
Experiment [1] has as its system melon bacterial fruit blotch. Nature of the experiment: control of melon bacterial fruit blotch (seed soaking). The settings on record: dosage 800 mg/L, after 2 weeks. How it is done: Melon bacterial fruit blotch: The testing compound is dissolved in a small amount of DMF and diluted with water to the desired concentration. The pathogenic bacteria in the stable growth phase is mixed with the testing solution. After melon seeds (accelerating germination) soaked in the solution containing pathogenic bacteria and compound for 0.5 hour, the seeds are sown in earthworm soil cup and then transferred into a greenhouse to allow disease to develop. After 2 weeks, The activity of the compound is evaluated based on germination or growth of control treatment

Experiment [2] concerns soft rot of chinese cabbage. In words: control of soft rot of chinese cabbage (cut leaves). The settings on record: dosage 400 mg/L, 48 hours. How it is done:
Soft rot of chinese cabbage: Chinese cabbage leaves are cut into 2 cm square and placed on the double filter paper in a petri dish. The testing compound is dissolved in DMF and diluted with water to the desired concentration. The testing solution is sprayed onto the surface of the cabbage leaf and dried in a fume hood. The surface of cabbage leaf is pierced using inoculation needle. A spore suspension (5 μl) of the chinese cabbage soft rot bacteria in the stable growth phase is inoculated onto the breakage of leaves, disease development is allowed to progress in a growth cabinet under dark condition for 48 hours. The activity of the compound is evaluated based on germination or growth of control treatment.

For experiment [3], the system named is bacterial leaf streak of rice (Xanthomonas oryzae pv. oryzicola). Conditions: field trial; for Disease control (%) repeat I / Disease control (%) repeat II / Disease control (%) repeatIII: 400 g a.i./hm^2, a week after 3 spray applications; for Disease control (%) average: 400 g a.i./hm^2, average of repeats I-III.

`N#CC(C#N)=NOCc1ccc(F)c(F)c1` [Compound 83]: the “control against melon bacterial fruit blotch” value in experiment [1] came to 100%. Besides, in experiment [2], the “control against soft rot of chinese cabbage” value (shortened to “control against soft rot”) is listed as 100%.
In the case of `N#CC(C#N)=NOCc1cccc(Br)c1` [Compound 9], the “control against melon bacterial fruit blotch” value in experiment [1] amounted to 100%. For the same compound, the “control against soft rot” value in experiment [2] is given as 100%.
In the case of `N#CC(C#N)=NOCc1ccc(C#N)cc1` [Compound 37], the “control against soft rot” value in experiment [2] was 100%.
As to `N#CC(C#N)=NOCc1ccc([N+](=O)[O-])cc1` [Compound 34], the “control against soft rot” value in experiment [2] is 100%.
Take thiazole zinc [reference compound]: in experiment [3], the “Disease control (%) repeat I” value came out at 39.21%, the “Disease control (%) repeat II” value is given as 37.24%, the “Disease control (%) repeatIII” value is reported as 37.88% and the “Disease control (%) average” value is 38.11%.
Regarding `N#CC(C#N)=NOCc1ccc(Cl)c(Cl)c1` [Compound 59], the “control against melon bacterial fruit blotch” value in experiment [1] worked out at 100%. In addition, in experiment [3], the “Disease control (%) repeat I” value is 56.96%, the “Disease control (%) repeat II” value was 58.37%, the “Disease control (%) repeatIII” value was found to be 51.24% and the “Disease control (%) average” value is on record as 55.52%. Further, the “control against soft rot” value in experiment [2] was 100%.
Take `N#CC(C#N)=NOCc1cccc(C#N)c1` [Compound 36]: the “control against soft rot” value in experiment [2] is given as 100%.
Still for that read-out and setting: in the case of `COc1ccc(CON=C(C#N)C#N)cc1` [Compound 19] it was 100%.
